This series addresses Multidrug resistance-associated protein 1 (Homo sapiens, UniProt P33527). Kind of series: TP_TRANSPORTER: increase in Daunorubicin, Adriamycin and Vincristine intracellular accumulation (Daunorubicin: 4 ug/mL, Difloxacin: 62.5 uM) in HL-60/AR cells. It is filed as functional, cell-based.

Here are results for one compound from ChEMBL document CHEMBL2074401, “Difloxacin reverses multidrug resistance in HL-60/AR cells that overexpress the multidrug resistance-related protein (MRP) gene” (Oncol Res, 1995).

Multidrug resistance-associated protein 1, sequence (P33527 whole entry): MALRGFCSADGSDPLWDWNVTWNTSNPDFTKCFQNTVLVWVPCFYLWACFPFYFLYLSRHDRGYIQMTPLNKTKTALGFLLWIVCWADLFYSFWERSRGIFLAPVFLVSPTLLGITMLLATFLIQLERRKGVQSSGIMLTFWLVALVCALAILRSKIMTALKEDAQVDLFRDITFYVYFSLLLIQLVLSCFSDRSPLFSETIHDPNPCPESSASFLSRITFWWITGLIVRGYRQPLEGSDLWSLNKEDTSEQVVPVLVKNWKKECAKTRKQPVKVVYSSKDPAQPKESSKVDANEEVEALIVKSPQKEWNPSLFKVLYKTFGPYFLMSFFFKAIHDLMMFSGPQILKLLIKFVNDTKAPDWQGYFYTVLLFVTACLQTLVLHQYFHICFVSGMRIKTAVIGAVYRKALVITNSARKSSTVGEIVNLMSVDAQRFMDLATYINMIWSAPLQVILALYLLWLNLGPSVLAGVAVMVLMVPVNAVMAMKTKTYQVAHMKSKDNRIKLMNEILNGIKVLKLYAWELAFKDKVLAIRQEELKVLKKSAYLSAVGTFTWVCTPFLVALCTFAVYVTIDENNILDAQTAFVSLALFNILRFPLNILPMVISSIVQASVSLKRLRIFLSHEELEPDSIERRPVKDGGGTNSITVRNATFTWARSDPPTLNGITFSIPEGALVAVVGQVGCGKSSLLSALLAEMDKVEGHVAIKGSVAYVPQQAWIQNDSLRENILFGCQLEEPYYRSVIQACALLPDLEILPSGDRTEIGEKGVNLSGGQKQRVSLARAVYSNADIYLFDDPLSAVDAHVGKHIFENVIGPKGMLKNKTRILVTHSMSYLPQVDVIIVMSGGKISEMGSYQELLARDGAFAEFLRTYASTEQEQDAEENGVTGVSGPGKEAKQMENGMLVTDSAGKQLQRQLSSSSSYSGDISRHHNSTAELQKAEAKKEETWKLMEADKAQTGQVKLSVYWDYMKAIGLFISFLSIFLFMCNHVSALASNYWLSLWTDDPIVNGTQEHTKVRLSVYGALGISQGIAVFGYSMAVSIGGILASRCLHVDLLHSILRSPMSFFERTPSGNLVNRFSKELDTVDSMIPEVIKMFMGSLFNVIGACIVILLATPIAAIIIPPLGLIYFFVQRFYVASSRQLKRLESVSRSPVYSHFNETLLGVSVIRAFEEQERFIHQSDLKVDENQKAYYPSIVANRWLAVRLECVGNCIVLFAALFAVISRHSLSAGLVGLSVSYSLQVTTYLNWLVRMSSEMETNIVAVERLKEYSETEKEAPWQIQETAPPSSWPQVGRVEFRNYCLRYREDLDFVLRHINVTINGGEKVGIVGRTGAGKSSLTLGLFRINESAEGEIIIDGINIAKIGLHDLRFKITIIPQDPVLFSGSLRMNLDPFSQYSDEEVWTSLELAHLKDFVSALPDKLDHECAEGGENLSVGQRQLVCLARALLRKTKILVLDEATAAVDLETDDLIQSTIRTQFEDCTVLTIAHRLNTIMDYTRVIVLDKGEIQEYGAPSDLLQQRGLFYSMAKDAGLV

Turning to `CN1CCN(c2cc3c(cc2F)c(=O)c(C(=O)O)cn3-c2ccc(F)cc2)CC1` [DIFLOXACIN], the Activity entry is “inhibitor [1.3 to 2.9-fold]”.
